Test results taken from ChEMBL document CHEMBL1129846, “Synthesis and antiproliferative activity of 2-O-allyl-1--D-arabinofuranosyl-uracil, -cytosine and -adenine” (Bioorg Med Chem Lett, 1997).

Tests used:
Assay type in all cases: functional, cell-based
[1] = Compound was evaluated for its antiproliferative activity on human T-lymphocyte Molt4/C8 cells; details: MOLT-4
[2] = system: L1210; assay: Tested for its antiproliferative activity on murine leukemia L1210 cells; details: Mus musculus
[3] = Compound was evaluated for its antiproliferative activity on human T-lymphocyte CEM cells; details: CCRF-CEM

Row | SMILES | IC50 [1] [µM] | IC50 [2] [µM] | IC50 [3] [µM]
1 | C=CCO[C@H]1[C@H](O)[C@@H](CO)O[C@H]1n1cnc2c(N)ncnc21 | 88 | 250 | 72
2 | Nc1ccn([C@@H]2O[C@H](CO)[C@@H](O)[C@@H]2O)c(=O)n1 [CYTARABINE] | 0.03 | 0.031 | 0.0037
3 | O=c1ccn([C@@H]2O[C@H](CO)[C@@H](O)[C@H]2O)c(=O)[nH]1 [URIDINE] | > 200 | > 200 | > 200
4 | C=CCO[C@H]1[C@H](O)[C@@H](CO)O[C@H]1n1ccc(N)nc1=O | 588 | 127 | 127
5 | Nc1ncnc2c1ncn2[C@@H]1O[C@H](CO)[C@@H](O)[C@@H]1O [VIDARABINE] | 11.9 | 14.2 | 24.8
6 | C=CCO[C@H]1[C@H](O)[C@@H](CO)O[C@H]1n1ccc(=O)[nH]c1=O | > 500 | > 500 | > 500
